This note sets out measurements from patent publication US20250026752A1, “POSITIVE ALLOSTERIC MODULATORS OF THE MUSCARINIC ACETYLCHOLINE RECEPTOR M4” (Vanderbilt University, priority 2021, published 2025).

Molecules are shown by their SMILES.

This test deals with T1, human mAChR M4 (Homo sapiens, UniProt P08173).
T1 construct: expressed in transfected cells; host or cells: CHO-K1 (ATCC), stably expressing hM4 and Gqi5
T1 sequence (P08173 1-479): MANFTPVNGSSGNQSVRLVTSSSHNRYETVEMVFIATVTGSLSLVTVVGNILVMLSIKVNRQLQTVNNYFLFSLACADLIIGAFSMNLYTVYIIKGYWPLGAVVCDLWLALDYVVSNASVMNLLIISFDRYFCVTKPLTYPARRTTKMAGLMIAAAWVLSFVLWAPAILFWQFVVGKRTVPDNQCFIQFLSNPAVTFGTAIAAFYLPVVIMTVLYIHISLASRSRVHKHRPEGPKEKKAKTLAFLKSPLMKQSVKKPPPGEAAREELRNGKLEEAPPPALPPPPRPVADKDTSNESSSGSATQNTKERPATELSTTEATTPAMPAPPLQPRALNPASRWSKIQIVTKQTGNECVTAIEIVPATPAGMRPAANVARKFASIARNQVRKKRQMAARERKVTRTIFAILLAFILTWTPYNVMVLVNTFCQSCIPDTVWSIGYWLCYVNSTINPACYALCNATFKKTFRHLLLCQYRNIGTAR
Briefly: mAChR M4 cell-based functional assay: calcium flux (Fluo-4, FDSS), positive allosteric modulator activity on the EC20 acetylcholine response, hM4-Gqi5 CHO-K1 cells. The settings on record: for Emax at 30 µM: CHO-K1, human M4, % ACh maximum at 30 μM; for EC50: human M4, PAM activity on EC20 acetylcholine response, calcium flux, read-out: Human M4 EC50. Put shortly: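 CHO-K1 cells stably expressing human M4 with chimeric Gqi5, loaded with Fluo-4 AM for 50 min at 37° C. Compounds (11-point, 1:3 dilutions) added first, then an acetylcholine EC20 at 144 s; calcium read on FDSS at 1 Hz. EC50 is the half-maximal increase above the EC20 baseline, four-parameter logistic fit.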
(In general: Calcium flux is commonly read through the fluorescence of an indicator in the cells.)

As to `Cc1ccc2nc(C)nc(N3CCc4ncc(-c5cnc(C)s5)cc4C3)c2c1` [Compound 55, 5-[6-(2,6-dimethylquinazolin-4-yl)-7,8-dihydro-5H-1,6-naphthyridin-3-yl]-2-methyl-thiazole], the Emax at 30 µM was determined as 92% and the EC50 worked out at 480 nM.

As to `Cc1nc(N2CCc3ncc(-c4ccc(C(F)(F)F)nc4)cc3C2)c2cc(F)ccc2n1` [Compound 3, 6-fluoro-2-methyl-4-[3-[6-(trifluoromethyl)-3-pyridyl]-7,8-dihydro-5H-1,6-naphthyridin-6-yl]quinazoline], the Emax at 30 µM is 75% and the EC50 was 460 nM.

With `CC1CN(c2ncnc3ccc(F)cc23)Cc2cc(NC3CCCC3)cnc21` (stereo not drawn) [Compound 233, N-cyclopentyl-6-(6-fluoroquinazolin-4-yl)-8-methyl-5,6,7,8-tetrahydro-1,6-naphthyridin-3-amine], the Emax at 30 µM amounted to 84% and the EC50 came to 410 nM.

Regarding `Cc1ccc2nc(Nc3ccnn3C)nc(N3CCc4ncc(C(F)(F)F)cc4C3)c2c1` [Compound 181, 6-methyl-N-(2-methylpyrazol-3-yl)-4-[3-(trifluoromethyl)-7,8-dihydro-5H-1,6-naphthyridin-6-yl]quinazolin-2-amine], the Emax at 30 µM is 85% and the EC50 came to 550 nM.

In the case of `Cn1nccc1Nc1cnc2c(c1)CN(c1nc(N3CCCC3)nc3ccc(F)cc13)CC2` [Compound 210, 6-(6-fluoro-2-pyrrolidin-1-yl-quinazolin-4-yl)-N-(2-methylpyrazol-3-yl)-7,8-dihydro-5H-1,6-naphthyridin-3-amine], the Emax at 30 µM came to 81% and the concentration giving a half-maximal response (EC50) came out at 240 nM.

`Clc1ccc2ncnc(N3CCc4ncc(-c5cnn(C6CC6)c5)cc4C3)c2c1` [Compound 17, 6-chloro-4-[3-(1-cyclopropylpyrazol-4-yl)-7,8-dihydro-5H-1,6-naphthyridin-6-yl]quinazoline]: the Emax at 30 µM was found to be 78% and the EC50 was found to be 120 nM.

Turning to `Cc1ccc(Oc2cnc3c(c2)CN(c2ncnc4ccc(F)cc24)CC3)c(F)c1` [Compound 144, 6-fluoro-4-[3-(2-fluoro-4-methyl-phenoxy)-7,8-dihydro-5H-1,6-naphthyridin-6-yl]quinazoline], the Emax at 30 µM is 74% and the EC50 was 1890 nM.

In the case of `Cc1nc(N2CCc3ncc(-c4ccccc4C)cc3C2)c2cc(F)ccc2n1` [Compound 294, 6-fluoro-2-methyl-4-(3-(o-tolyl)-7,8-dihydro-1,6-naphthyridin-6(5H)-yl)quinazoline], the Emax at 30 µM was 68% and the EC50 turned out to be 1630 nM.

`FC(F)(F)c1cnc2c(c1)CN(c1nc(C3CC3)nc3ccc(Cl)cc13)CC2` [Compound 186, 6-chloro-2-cyclopropyl-4-[3-(trifluoromethyl)-7,8-dihydro-5H-1,6-naphthyridin-6-yl]quinazoline]: the Emax at 30 µM amounted to 75% and the EC50 was > 10000 nM.

For `Cc1ccc(-c2cnc3c(c2)CN(c2nc(C)nc4ccc(F)cc24)CC3)cn1` [Compound 26, 6-fluoro-2-methyl-4-[3-(6-methyl-3-pyridyl)-7,8-dihydro-5H-1,6-naphthyridin-6-yl]quinazoline], the Emax at 30 µM stood at 102% and the EC50 was determined as 130 nM.

For `C[C@@H]1CN(c2cnc3c(c2)CN(c2ncnc4ccc(F)cc24)CC3)CCO1` [Compound 104, (2R)-4-[6-(6-fluoroquinazolin-4-yl)-7,8-dihydro-5H-1,6-naphthyridin-3-yl]-2-methyl-morpholine], the Emax at 30 µM turned out to be 63% and the EC50 is 70 nM.

With `Cc1nc(N2CCc3ncc(N4CCOC(c5ccccn5)C4)cc3C2)c2cc(F)ccc2n1` (stereo not drawn) [Compound 224, 4-(6-(6-fluoro-2-methylquinazolin-4-yl)-5,6,7,8-tetrahydro-1,6-naphthyridin-3-yl)-2-(pyridin-2-yl)morpholine], the Emax at 30 µM stood at 72% and the EC50 is 930 nM.

A word on the Emax: it is the size of the effect at its maximum, as opposed to the concentration needed. What is called EC50 is the concentration at which the effect is half-maximal.
